For orientation: solubility means how much of the substance goes into solution per volume. In general, EC50 refers to the concentration that produces a half-maximal response.

In brackets after ≈: the same amount, converted by molar mass. Peptide text beside a SMILES is read from it.

A short description of one series: physchem. In kind it is physicochemical.
In another series the target is T1, GC receptor (Homo sapiens, UniProt P47871).
T1 construct: expressed in transfected cells; host or cells: HEK293 cells
In words: GC receptor mediated cAMP production in vitro (HEK293 cells transfected with GC receptor). In kind it is cell-based. The following applies: 20 min at 37° C., read-out: GCGR (nM EC50). From the text:
The medium was removed, the cells were lysed, and cAMP values were detected referring to the detection method described for the assay kit.
(In general: Cyclic AMP is a second messenger, typically raised through Gs and lowered through Gi signalling.)

Where [1] appears, read: pH 7.5, Solubility, pH 7.5, 10 mM phosphate buffer.
Setting [2] is: pH 7.5, Solubility, pH 7.5, 20 mM phosphate buffer.
[3] abbreviates: pH 8, Solubility, pH 8.0, 10 mM phosphate buffer.
Setting [4] is: pH 8, Solubility, pH 8.0, 20 mM phosphate buffer.
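Wherever Solubility, pH 7.5, 20 mM phosphate buffer is given: compound added at 2 mg per mL of phosphate buffer, with the dissolved amount determined in the supernatant.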
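Wherever solubility is given: compound added at 2 mg per mL of phosphate buffer, with the dissolved amount determined in the supernatant.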

T1 sequence (P47871 26-477): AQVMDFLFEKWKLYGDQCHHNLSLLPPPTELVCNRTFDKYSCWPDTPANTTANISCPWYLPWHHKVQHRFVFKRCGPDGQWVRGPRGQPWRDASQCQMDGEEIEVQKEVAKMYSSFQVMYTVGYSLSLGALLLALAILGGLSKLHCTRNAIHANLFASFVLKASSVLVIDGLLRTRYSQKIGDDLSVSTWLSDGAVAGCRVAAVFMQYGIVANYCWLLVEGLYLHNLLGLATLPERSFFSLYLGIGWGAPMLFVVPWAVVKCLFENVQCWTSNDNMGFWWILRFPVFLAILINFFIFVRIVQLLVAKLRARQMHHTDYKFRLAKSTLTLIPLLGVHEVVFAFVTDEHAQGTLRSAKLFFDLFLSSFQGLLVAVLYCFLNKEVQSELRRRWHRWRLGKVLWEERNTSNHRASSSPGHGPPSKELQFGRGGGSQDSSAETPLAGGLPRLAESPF

In the case of `CCCCCCCCCCCCCCCC(=O)N[C@@H](CCC(=O)N[C@@H](CCC(=O)NCCCC[C@H](NC(=O)[C@H](CC(=O)O)NC(=O)[C@H](CO)NC(=O)[C@@H](NC(=O)[C@H](Cc1ccccc1)NC(=O)[C@@H](NC(=O)CNC(=O)[C@H](CCC(N)=O)NC(=O)C(C)(C)NC(=O)[C@@H](N)Cc1c[nH]cn1)[C@@H](C)O)[C@@H](C)O)C(=O)N[C@@H](CO)C(=O)N[C@@H](CCCCN)C(=O)N[C@@H](Cc1ccc(O)cc1)C(=O)N[C@@H](CC(C)C)C(=O)N[C@@H](CCC(=O)O)C(=O)N[C@@H](CCC(=O)O)C(=O)N[C@@H](CCCNC(=N)N)C(=O)N[C@@H](C)C(=O)N[C@@H](C)C(=O)N[C@@H](CCCCN)C(=O)N[C@@H](CCC(=O)O)C(=O)N[C@@H](Cc1ccccc1)C(=O)N[C@H](C(=O)N[C@@H](C)C(=O)N[C@@H](Cc1c[nH]c2ccccc12)C(=O)N[C@@H](CC(C)C)C(=O)N[C@@H](CC(C)C)C(=O)N[C@@H](CCC(=O)O)C(=O)NCC(=O)NCC(=O)N1CCC[C@H]1C(=O)N[C@@H](CO)C(=O)N[C@@H](CO)C(=O)NCC(N)=O)[C@@H](C)CC)C(=O)O)C(=O)O` [Compound 16] (HELM PEPTIDE1{H.[Aib].Q.G.T.F.T.S.D.K.S.K.Y.L.E.E.R.A.A.K.E.F.I.A.W.L.L.E.G.G.P.S.S.G.[am]}|PEPTIDE2{[CCCCCCCCCCCCCCCC(=O)[*:2]].[gGlu].[gGlu]}$PEPTIDE1,PEPTIDE2,10:R3-3:R2$$$V2.0; N-terminus assumed), the solubility in “physchem” (setting [1]) worked out at 140 µg/mL (≈ 33.2 µM); in “physchem” (setting [2]), 50 µg/mL (≈ 11.8 µM); in the series “physchem” (setting [3]), 160 µg/mL (≈ 37.9 µM); in the series “physchem” (setting [4]), 200 µg/mL (≈ 47.4 µM). For the same compound, on GC receptor, the EC50 was found to be 0.092 nM.
As to `CCCCCCCCCCCCCCCC(=O)N[C@@H](CCC(=O)N[C@@H](CCC(=O)NCCCC[C@H](NC(=O)[C@H](CC(=O)O)NC(=O)[C@H](CO)NC(=O)[C@@H](NC(=O)[C@H](Cc1ccccc1)NC(=O)[C@@H](NC(=O)CNC(=O)[C@H](CCC(N)=O)NC(=O)C(C)(C)NC(=O)[C@@H](N)Cc1c[nH]cn1)[C@@H](C)O)[C@@H](C)O)C(=O)N[C@@H](CO)C(=O)N[C@@H](CCCCN)C(=O)N[C@@H](Cc1ccc(O)cc1)C(=O)N[C@@H](CC(C)C)C(=O)N[C@@H](CCC(=O)O)C(=O)N[C@@H](CCC(=O)O)C(=O)N[C@@H](CCCNC(=N)N)C(=O)N[C@@H](C)C(=O)N[C@@H](C)C(=O)N[C@@H](CCCCN)C(=O)N[C@@H](CCC(=O)O)C(=O)N[C@@H](Cc1ccccc1)C(=O)N[C@H](C(=O)N[C@@H](C)C(=O)N[C@@H](Cc1c[nH]c2ccccc12)C(=O)N[C@@H](CC(C)C)C(=O)N[C@@H](CCC(=O)O)C(=O)NCC(=O)NCC(=O)N1CCC[C@H]1C(=O)N[C@@H](CO)C(=O)N[C@@H](CO)C(=O)NCC(N)=O)[C@@H](C)CC)C(=O)O)C(=O)O` [Compound 21] (HELM PEPTIDE1{H.[Aib].Q.G.T.F.T.S.D.K.S.K.Y.L.E.E.R.A.A.K.E.F.I.A.W.L.E.G.G.P.S.S.G.[am]}|PEPTIDE2{[CCCCCCCCCCCCCCCC(=O)[*:2]].[gGlu].[gGlu]}$PEPTIDE1,PEPTIDE2,10:R3-3:R2$$$V2.0; N-terminus assumed), the solubility in “physchem” (setting [1]) and in “physchem” (setting [2]) was more than 2000 µg/mL each time. For the same compound, the EC50 at GC receptor was found to be 0.175 nM.
As to `CCCCCCCCCCCCCCCC(=O)N[C@@H](CCC(=O)N[C@@H](CCC(=O)NCCCC[C@H](NC(=O)[C@H](CC(=O)O)NC(=O)[C@H](CO)NC(=O)[C@@H](NC(=O)[C@H](Cc1ccccc1)NC(=O)[C@@H](NC(=O)CNC(=O)[C@H](CCC(N)=O)NC(=O)C(C)(C)NC(=O)[C@@H](N)Cc1c[nH]cn1)[C@@H](C)O)[C@@H](C)O)C(=O)N[C@@H](CO)C(=O)N[C@@H](CCCCN)C(=O)N[C@@H](Cc1ccc(O)cc1)C(=O)N[C@@H](CC(C)C)C(=O)N[C@@H](CCC(=O)O)C(=O)N[C@@H](CCC(=O)O)C(=O)N[C@@H](CCCNC(=N)N)C(=O)N[C@@H](C)C(=O)N[C@@H](C)C(=O)N[C@@H](CCCCN)C(=O)N[C@@H](CCC(=O)O)C(=O)N[C@@H](Cc1ccccc1)C(=O)N[C@H](C(=O)N[C@@H](CCC(=O)O)C(=O)N[C@@H](Cc1c[nH]c2ccccc12)C(=O)N[C@@H](CC(C)C)C(=O)N[C@@H](CC(C)C)C(=O)N[C@@H](CCC(=O)O)C(=O)N[C@@H](C)C(=O)NCC(=O)NCC(=O)N1CCC[C@H]1C(=O)N[C@@H](CO)C(=O)N[C@@H](CO)C(=O)NCC(N)=O)C(C)C)C(=O)O)C(=O)O` [Compound 25] (HELM PEPTIDE1{H.[Aib].Q.G.T.F.T.S.D.K.S.K.Y.L.E.E.R.A.A.K.E.F.V.E.W.L.L.E.A.G.G.P.S.S.G.[am]}|PEPTIDE2{[CCCCCCCCCCCCCCCC(=O)[*:2]].[gGlu].[gGlu]}$PEPTIDE1,PEPTIDE2,10:R3-3:R2$$$V2.0; N-terminus assumed), the solubility turned out to be 300 µg/mL (≈ 69.2 µM) in “physchem” (setting [1]), 100 µg/mL (≈ 23.1 µM) in “physchem” (setting [2]), 500 µg/mL (≈ 115 µM) in the series “physchem” (setting [3]) and 200 µg/mL (≈ 46.1 µM) in the series “physchem” (setting [4]). Further, the EC50 at GC receptor is 0.278 nM.
As for `CCCCCCCCCCCCCCCC(=O)N[C@@H](CCC(=O)N[C@@H](CCC(=O)NCCCC[C@H](NC(=O)[C@H](C)NC(=O)[C@H](CCCNC(=N)N)NC(=O)[C@H](CCCCN)NC(=O)[C@H](CCC(=O)O)NC(=O)[C@H](CCC(=O)O)NC(=O)[C@H](CC(C)C)NC(=O)[C@H](Cc1ccc(O)cc1)NC(=O)[C@H](CCCCN)NC(=O)[C@H](CO)NC(=O)[C@H](Cc1ccc(O)cc1)NC(=O)[C@H](CC(=O)O)NC(=O)[C@H](CO)NC(=O)[C@@H](NC(=O)[C@H](Cc1ccccc1)NC(=O)[C@@H](NC(=O)CNC(=O)[C@H](CCC(N)=O)NC(=O)C(C)(C)NC(=O)[C@@H](N)Cc1c[nH]cn1)[C@@H](C)O)[C@@H](C)O)C(=O)N[C@@H](CCC(=O)O)C(=O)N[C@@H](Cc1ccccc1)C(=O)N[C@H](C(=O)N[C@@H](CCC(=O)O)C(=O)N[C@@H](Cc1c[nH]c2ccccc12)C(=O)N[C@@H](CC(C)C)C(=O)N[C@@H](CC(C)C)C(=O)N[C@@H](CCC(=O)O)C(=O)N[C@@H](C)C(=O)NCC(=O)NCC(=O)N1CCC[C@H]1C(=O)N[C@@H](CO)C(=O)N[C@@H](CO)C(=O)NCC(N)=O)C(C)C)C(=O)O)C(=O)O` [Compound 26] (HELM PEPTIDE1{H.[Aib].Q.G.T.F.T.S.D.Y.S.K.Y.L.E.E.K.R.A.K.E.F.V.E.W.L.L.E.A.G.G.P.S.S.G.[am]}|PEPTIDE2{[CCCCCCCCCCCCCCCC(=O)[*:2]].[gGlu].[gGlu]}$PEPTIDE1,PEPTIDE2,20:R3-3:R2$$$V2.0; N-terminus assumed), in “physchem” (pH 7.5), the “Solubility, pH 7.5, 20 mM phosphate buffer” value is “Insoluble”. Moreover, the values for the solubility in the series “physchem” (setting [1]), in “physchem” (setting [3]) and in the series “physchem” (setting [4]) were 80 µg/mL (≈ 18.1 µM), 200 µg/mL (≈ 45.2 µM) and 100 µg/mL (≈ 22.6 µM), respectively. On GC receptor, the EC50 turned out to be 0.197 nM.

Values taken from patent US12257287B2, “Glucagon-derived peptide and use thereof” (Tianjin Institute of Pharmaceutical Research Co., Ltd., priority 2018, dated 2025).
